The record followed here is ChEMBL document CHEMBL1156522, “Lateral compartmentalization of T cell receptor versus CD45 by galectin-N-glycan binding and microfilaments coordinate basal and activation signaling” (J Biol Chem, 2007).

Assay [1] addresses Tyrosine-protein phosphatase non-receptor type 13 (Homo sapiens, UniProt Q12923). Briefly: Inhibition of protein tyrosine phosphatase N13 phosphorylation.
Assay [2] deals with T1, Tyrosine-protein kinase Lck (Homo sapiens, UniProt P06239). Briefly: Inhibition of Lck phosphorylation.
Target sequence in this assay (P06239 whole entry): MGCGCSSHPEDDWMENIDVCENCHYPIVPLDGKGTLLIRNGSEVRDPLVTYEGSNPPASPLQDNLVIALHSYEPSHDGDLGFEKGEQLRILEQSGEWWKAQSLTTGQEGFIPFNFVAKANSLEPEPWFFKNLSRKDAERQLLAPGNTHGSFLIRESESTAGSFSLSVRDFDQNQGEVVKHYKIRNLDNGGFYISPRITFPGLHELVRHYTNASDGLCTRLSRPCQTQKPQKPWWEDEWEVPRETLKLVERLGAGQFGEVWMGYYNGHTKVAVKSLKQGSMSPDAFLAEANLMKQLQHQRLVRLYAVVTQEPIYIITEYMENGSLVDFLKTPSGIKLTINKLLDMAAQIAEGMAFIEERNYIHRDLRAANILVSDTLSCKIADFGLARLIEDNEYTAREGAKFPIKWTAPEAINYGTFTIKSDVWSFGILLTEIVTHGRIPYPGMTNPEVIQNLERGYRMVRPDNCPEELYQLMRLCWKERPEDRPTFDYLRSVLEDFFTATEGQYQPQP
Assay [3] addresses T2, Tyrosine-protein phosphatase non-receptor type 1 (Homo sapiens, UniProt P18031).
T2 sequence (P18031 whole entry): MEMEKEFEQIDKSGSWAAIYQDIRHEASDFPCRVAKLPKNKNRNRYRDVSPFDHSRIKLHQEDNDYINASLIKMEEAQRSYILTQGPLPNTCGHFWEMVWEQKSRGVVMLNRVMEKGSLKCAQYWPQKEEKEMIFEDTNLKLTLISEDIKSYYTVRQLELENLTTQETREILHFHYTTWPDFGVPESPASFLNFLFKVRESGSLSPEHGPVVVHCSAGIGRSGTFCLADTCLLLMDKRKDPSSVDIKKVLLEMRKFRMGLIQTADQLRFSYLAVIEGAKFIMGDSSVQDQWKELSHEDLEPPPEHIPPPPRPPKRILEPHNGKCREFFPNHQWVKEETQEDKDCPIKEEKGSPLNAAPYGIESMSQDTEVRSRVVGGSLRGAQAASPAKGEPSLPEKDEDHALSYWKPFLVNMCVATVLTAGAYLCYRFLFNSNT
Briefly: Inhibition of protein tyrosine phosphatase N1 phosphorylation.

In assay [4] the target is Proto-oncogene tyrosine-protein kinase LCK (Mus musculus) (UniProt P06240). Briefly: Reversal of reduction of Lck Tyr394 phosphorylation in resting C57BL/6 mouse T cells at 20 uM by Western blot. The following applies: T-cell. The assay is classed as cell-based. In general terms: In western blotting, separated proteins are transferred to a membrane and probed.
The target is the same in assay [5]. Briefly: Reduction of Lck Tyr394 phosphorylation in resting C57BL/6 mouse T cells at 20 uM by Western blot. The assay is classed as cell-based. The following applies: T-cell.
Assay [6] relates to Jurkat. Briefly: Reduction of CD45 co-localization with GM1-enriched microdomain in human Jurkat T cells after 3 days. The assay is classed as functional, cell-based.
The subject of assay [7] is Jurkat. Briefly: Induction of Nck protein binding to TCR complex in human Jurkat T cells by immunoprecipitation. The class given is cell-based.
Assay [8] deals with T-cell. Briefly: Effect on TCR distribution within GM1-enriched microdomain in C57BL/6 mouse Mgat5 expressing T cells pretreated at 20 uM. The class given is functional, cell-based.
The test system of assay [9] is T-cell. Briefly: Effect on CD4 distribution within GM1-enriched microdomain in C57BL/6 mouse Mgat5 expressing T cells pretreated at 20 uM. The class given is functional, cell-based.
Assay [10] relates to T-cell. Kind of assay: Effect on CD45 distribution within GM1-enriched microdomain in C57BL/6 mouse Mgat5 expressing T cells pretreated at 20 uM. The assay is classed as functional, cell-based.
For assay [11], the system named is J-RT3-T3-5. Briefly: Increase in CD4 galectin lattice partition to GM1-enriched microdomain TCRbeta deficient human J.RT3-T3.5 cells by densitometry. The assay is classed as functional.
Assay [12] addresses T3, Tyrosine-protein kinase ZAP-70 (Homo sapiens) (UniProt P43403).
T3 sequence (whole entry): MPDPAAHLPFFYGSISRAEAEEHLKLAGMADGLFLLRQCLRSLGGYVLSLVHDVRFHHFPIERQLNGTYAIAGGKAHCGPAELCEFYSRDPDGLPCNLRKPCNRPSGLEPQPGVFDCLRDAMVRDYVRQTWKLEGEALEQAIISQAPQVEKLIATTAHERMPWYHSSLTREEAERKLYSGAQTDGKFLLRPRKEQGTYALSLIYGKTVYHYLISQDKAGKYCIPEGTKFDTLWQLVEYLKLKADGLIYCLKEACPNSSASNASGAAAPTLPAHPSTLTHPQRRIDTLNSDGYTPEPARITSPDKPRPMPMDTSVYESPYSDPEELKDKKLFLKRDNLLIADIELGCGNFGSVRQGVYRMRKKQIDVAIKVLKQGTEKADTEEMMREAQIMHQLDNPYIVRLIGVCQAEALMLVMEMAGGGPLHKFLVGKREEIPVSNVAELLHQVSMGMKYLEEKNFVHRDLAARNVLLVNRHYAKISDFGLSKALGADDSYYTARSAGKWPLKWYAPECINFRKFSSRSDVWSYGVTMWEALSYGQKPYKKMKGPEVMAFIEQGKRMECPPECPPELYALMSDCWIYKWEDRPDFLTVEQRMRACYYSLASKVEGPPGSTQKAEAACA
Kind of assay: Increase in Zap70 phosphorylation in anti-CD3-coated microbeads-stimulated CD45 deficient human J45.01 cells after 3 days.

For assay [13], the system named is Jurkat. Kind of assay: Increase in CD45 galectin lattice partition to GM1-enriched microdomain in human Jurkat T cells by densitometry. The class given is functional, cell-based.
For assay [14], the species on record is Homo sapiens. Kind of assay: Increase in ZAP70 expression in GM1-enriched microdomain of Lck defient human JCaM1.6 cells by Western blot. The class given is functional.
In assay [15] the target is T1, Tyrosine-protein kinase Lck. Kind of assay: Induction of Lck Tyr394 phosphorylation in human Jurkat T cells at 5 uM after 3 days by Western blot analysis. The class given is cell-based.
Target sequence in this assay (P06239 2-509 limits assumed): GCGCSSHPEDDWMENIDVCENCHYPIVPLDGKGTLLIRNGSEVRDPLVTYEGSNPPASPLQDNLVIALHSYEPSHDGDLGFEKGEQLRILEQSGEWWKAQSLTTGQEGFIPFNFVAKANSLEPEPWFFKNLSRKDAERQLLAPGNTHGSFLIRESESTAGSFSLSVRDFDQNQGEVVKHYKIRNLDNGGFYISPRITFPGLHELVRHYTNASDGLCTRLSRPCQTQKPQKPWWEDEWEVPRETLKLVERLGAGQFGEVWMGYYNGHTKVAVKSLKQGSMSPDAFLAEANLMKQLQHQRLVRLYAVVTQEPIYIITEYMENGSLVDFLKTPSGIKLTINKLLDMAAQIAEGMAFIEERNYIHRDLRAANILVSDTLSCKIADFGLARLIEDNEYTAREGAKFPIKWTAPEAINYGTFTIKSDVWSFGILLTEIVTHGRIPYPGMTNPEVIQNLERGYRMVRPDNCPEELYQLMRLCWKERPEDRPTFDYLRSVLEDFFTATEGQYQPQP
Assay [16] deals with T-cell. Kind of assay: Increase CD4 co-localization to GM1-enriched microdomain in C57BL/6 mouse T cells pretreated for 20 mins. The assay is classed as functional, cell-based.
Assay [17] relates to J-RT3-T3-5. Briefly: Enhancement of Lck localization within GM1-enriched microdomain in TCRbeta deficient human J.RT3-T3.5 cells by Western blot. The class given is functional.
Assay [18] relates to Jurkat. Kind of assay: Enhancement of Lck localization within GM1-enriched microdomain in human Jurkat T cells by Western blot. The assay is classed as functional, cell-based.
For assay [19], the system named is J-RT3-T3-5. Briefly: Increase in TCR-CD3 galectin lattice partition to GM1-enriched microdomain TCRbeta deficient human J.RT3-T3.5 cells by densitometry. The assay is classed as functional.
Assay [20] concerns Jurkat. Briefly: Increase in TCR-CD3 galectin lattice partition to GM1-enriched microdomain in CD4 deficient human Jurkat D1. 1 cells by densitometry. The assay is classed as functional, cell-based.
For assay [21], the system named is T-cell. Kind of assay: Increase T cell receptor co-localization to GM1-enriched microdomain in C57BL/6 mouse T cells pretreated for 20 mins. The class given is functional, cell-based.
The species entered for assay [22] is Homo sapiens. Briefly: Enhancement of Lck localization within GM1-enriched microdomain in CD45 deficient human J45.01 cells by Western blot. The class given is functional.
In assay [23] the test system is Jurkat. Briefly: Reduction of CD4 surface expression in Lck deficient human Jurkat T cells by flow cytometry. The assay is classed as functional, cell-based. (In general: A flow cytometer gives signals particle by particle.)
Assay [24] concerns Jurkat. Kind of assay: Increase in CD4 galectin lattice partition to GM1-enriched microdomain in human Jurkat T cells by densitometry. The class given is functional, cell-based.
Assay [25] concerns the target T3, Tyrosine-protein kinase ZAP-70 (Homo sapiens). Briefly: Induction of ZAP70 phosphorylation in human Jurkat T cells at 5 uM after 3 days by Western blot analysis. The class given is cell-based.
Assay [26] is filed under the species Homo sapiens. Briefly: Increase in TCR-CD3 galectin lattice partition to GM1-enriched microdomain in CD45 deficient human J45.01 cells by densitometry. The assay is classed as functional.
The test system of assay [27] is T-cell. Kind of assay: Reduction of CD45 co-localization with GM1-enriched microdomain in resting C57BL/6 mouse T cells pretreated for 20 mins. The class given is functional, cell-based.
For assay [28], the system named is Jurkat. Briefly: Enhancement of Lck localization within GM1-enriched microdomain in CD4 deficient human Jurkat D1. 1 cells by Western blot. The assay is classed as functional, cell-based.
Assay [29] has as its target T4, Linker for activation of T-cells family member 1 (Homo sapiens) (UniProt O43561).
T4 sequence (whole entry): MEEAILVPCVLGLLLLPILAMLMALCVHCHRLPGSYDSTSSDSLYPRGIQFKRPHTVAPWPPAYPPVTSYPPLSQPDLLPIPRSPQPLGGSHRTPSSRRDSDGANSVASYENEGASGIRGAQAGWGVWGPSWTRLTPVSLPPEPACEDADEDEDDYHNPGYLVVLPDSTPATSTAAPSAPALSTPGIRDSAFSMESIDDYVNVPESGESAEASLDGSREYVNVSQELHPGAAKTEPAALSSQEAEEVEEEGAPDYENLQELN
Briefly: Increase in LAT phosphorylation in anti-CD3-coated microbeads-stimulated CD45 deficient human J45.01 cells after 3 days.

The species entered for assay [30] is Homo sapiens. Briefly: Increase in CD45 galectin lattice partition to GM1-enriched microdomain in CD45 deficient human J45.01 cells by densitometry. The assay is classed as functional.
The target of assay [31] is T4, Linker for activation of T-cells family member 1 (Homo sapiens). Kind of assay: Induction of LAT phosphorylation in human Jurkat T cells at 5 uM after 3 days by Western blot analysis. The class given is cell-based.
The target in assay [32] is T1, Tyrosine-protein kinase Lck. Kind of assay: Induction of Lck Tyr394 phosphorylation in TCRbeta deficient human Jurkat T J.RT3-T3.5 cells at 5 uM after 3 days by Western blot analysis. The assay is classed as cell-based.
Target sequence in this assay (P06239 2-509 limits assumed): as the sequence (P06239 2-509 limits assumed) above
For assay [33] the target is unchanged. Briefly: Induction of Lck Tyr394 phosphorylation in CD45 deficient human Jurkat T DJ45.01 cells at 5 uM after 3 days by Western blot analysis. The class given is cell-based.
Target sequence in this assay (P06239 2-509 limits assumed): as the sequence (P06239 2-509 limits assumed) above
Assay [34] relates to Jurkat. Kind of assay: Increase in CD45 galectin lattice partition to GM1-enriched microdomain in CD4 deficient human Jurkat D1. 1 cells by densitometry. The assay is classed as functional, cell-based.
Assay [35] is filed under the species Homo sapiens. Kind of assay: Increase in CD4 galectin lattice partition to GM1-enriched microdomain in CD45 deficient human J45.01 cells by densitometry. The class given is functional.
For assay [36], the target named is T1, Tyrosine-protein kinase Lck. Briefly: Induction of Lck Tyr394 phosphorylation in CD4 deficient human Jurkat T D1.1 cells at 5 uM after 3 days by Western blot analysis. The assay is classed as cell-based.
Target sequence in this assay (P06239 2-509 limits assumed): as the sequence (P06239 2-509 limits assumed) above
The test system of assay [37] is Jurkat. Briefly: Increase in TCR-CD3 galectin lattice partition to GM1-enriched microdomain in human Jurkat T cells by densitometry. The class given is functional, cell-based.
Assay [38] deals with Jurkat. Briefly: Increase in ZAP70 expression in GM1-enriched microdomain of human Jurkat T cells by Western blot. The class given is functional, cell-based.
The subject of assay [39] is J-RT3-T3-5. Kind of assay: Increase in CD45 galectin lattice partition to GM1-enriched microdomain TCRbeta deficient human J.RT3-T3.5 cells by densitometry. The assay is classed as functional.

Active and inactive are the calls of the source. The calls are words filed in the database; no cut-off is given here.

Proto-oncogene tyrosine-protein kinase LCK (Mus musculus), sequence (P06240 2-509 limits assumed): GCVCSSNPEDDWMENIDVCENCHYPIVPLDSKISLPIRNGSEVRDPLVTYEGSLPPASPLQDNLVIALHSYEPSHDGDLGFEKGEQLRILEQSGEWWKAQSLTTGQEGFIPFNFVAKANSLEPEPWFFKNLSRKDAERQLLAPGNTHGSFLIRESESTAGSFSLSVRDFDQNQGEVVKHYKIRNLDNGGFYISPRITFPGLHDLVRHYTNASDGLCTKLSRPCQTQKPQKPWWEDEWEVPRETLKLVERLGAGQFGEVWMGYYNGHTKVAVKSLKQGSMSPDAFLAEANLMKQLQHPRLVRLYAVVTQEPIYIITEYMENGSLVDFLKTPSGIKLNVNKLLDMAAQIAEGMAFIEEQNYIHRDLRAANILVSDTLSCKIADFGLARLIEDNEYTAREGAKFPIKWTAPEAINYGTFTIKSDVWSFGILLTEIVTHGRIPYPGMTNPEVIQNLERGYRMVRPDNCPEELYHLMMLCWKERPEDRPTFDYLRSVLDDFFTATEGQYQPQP
Tyrosine-protein phosphatase non-receptor type 13, sequence (Q12923 whole entry): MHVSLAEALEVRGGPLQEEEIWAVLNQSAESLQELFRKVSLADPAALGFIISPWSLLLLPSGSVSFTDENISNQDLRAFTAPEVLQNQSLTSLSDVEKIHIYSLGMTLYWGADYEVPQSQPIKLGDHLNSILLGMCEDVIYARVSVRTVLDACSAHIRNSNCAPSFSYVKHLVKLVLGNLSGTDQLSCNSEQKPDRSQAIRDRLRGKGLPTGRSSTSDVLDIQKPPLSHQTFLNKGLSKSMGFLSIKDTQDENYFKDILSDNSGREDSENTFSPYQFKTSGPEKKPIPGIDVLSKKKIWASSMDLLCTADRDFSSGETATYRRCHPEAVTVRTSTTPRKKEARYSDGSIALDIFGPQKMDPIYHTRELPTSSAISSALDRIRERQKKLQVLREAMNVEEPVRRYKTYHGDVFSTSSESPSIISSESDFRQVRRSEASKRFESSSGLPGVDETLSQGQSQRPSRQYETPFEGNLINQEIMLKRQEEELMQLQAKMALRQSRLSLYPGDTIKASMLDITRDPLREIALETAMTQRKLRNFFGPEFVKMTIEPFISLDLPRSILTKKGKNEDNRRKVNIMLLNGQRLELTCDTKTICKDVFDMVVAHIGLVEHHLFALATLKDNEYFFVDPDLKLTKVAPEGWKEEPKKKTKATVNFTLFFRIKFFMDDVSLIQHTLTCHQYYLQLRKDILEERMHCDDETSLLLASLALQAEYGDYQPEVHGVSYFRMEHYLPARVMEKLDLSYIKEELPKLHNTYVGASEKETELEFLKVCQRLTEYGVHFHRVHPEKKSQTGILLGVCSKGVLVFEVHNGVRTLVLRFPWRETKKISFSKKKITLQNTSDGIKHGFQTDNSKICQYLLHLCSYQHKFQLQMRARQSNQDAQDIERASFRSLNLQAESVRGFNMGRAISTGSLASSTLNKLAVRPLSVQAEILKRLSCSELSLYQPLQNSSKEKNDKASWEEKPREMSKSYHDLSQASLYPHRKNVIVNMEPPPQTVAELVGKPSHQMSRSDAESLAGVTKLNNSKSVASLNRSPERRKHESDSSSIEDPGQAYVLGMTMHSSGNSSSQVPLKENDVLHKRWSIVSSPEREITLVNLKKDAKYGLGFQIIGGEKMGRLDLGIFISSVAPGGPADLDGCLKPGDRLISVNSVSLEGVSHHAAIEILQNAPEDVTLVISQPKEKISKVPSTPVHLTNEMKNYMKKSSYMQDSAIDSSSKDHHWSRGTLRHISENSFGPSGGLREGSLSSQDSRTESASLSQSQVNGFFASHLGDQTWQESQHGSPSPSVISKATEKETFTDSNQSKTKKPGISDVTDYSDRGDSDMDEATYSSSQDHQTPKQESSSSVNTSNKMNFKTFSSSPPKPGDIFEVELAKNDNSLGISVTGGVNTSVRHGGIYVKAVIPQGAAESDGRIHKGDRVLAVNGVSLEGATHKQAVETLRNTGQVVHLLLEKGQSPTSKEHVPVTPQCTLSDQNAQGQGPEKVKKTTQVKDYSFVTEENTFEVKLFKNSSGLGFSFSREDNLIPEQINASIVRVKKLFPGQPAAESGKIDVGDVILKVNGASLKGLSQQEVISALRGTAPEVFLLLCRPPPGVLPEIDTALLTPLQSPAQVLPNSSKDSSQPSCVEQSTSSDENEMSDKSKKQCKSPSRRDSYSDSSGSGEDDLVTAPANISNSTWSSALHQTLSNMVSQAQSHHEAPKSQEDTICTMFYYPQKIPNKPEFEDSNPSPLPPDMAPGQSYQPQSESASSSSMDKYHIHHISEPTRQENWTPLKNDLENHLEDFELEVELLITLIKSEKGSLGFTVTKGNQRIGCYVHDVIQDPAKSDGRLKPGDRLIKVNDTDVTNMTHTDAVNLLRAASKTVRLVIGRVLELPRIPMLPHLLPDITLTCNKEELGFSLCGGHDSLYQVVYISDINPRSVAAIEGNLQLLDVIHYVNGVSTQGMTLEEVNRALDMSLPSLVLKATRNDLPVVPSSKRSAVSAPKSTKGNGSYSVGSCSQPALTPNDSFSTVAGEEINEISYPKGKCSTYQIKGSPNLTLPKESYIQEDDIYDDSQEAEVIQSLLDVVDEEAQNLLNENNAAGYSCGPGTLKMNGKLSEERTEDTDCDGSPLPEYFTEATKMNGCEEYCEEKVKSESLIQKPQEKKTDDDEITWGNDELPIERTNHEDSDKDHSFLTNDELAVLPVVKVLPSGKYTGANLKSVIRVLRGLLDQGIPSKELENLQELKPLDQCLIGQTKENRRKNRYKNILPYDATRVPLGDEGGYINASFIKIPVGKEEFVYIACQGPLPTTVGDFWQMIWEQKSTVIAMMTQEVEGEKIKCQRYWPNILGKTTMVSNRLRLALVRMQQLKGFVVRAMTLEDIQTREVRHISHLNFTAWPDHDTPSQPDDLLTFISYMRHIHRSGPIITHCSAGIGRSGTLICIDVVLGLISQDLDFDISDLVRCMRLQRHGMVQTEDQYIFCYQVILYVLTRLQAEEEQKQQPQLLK

With `CC(C)(C)C(=O)Nc1ccc2c(c1)C(=O)C(=O)c1ccccc1-2`, the IC50 (in general, the concentration needed to halve the response being measured) was over 30 µM in assay [1], 3.8 µM in assay [2] and over 30 µM in assay [3].

Take `C/C1=C/C(=O)O[C@@H]2C[C@@H](CC[C@H](C)/C=C\C=C\CC1)O[C@@](O)([C@@H]1CSC(=O)N1)C2`: the outcome in [4] and in assay [5] was Active.

For LACTOSE, ANHYDROUS, the outcome in the assay with Jurkat [6] and in the assay on Jurkat [7] was Active.

As for `CC(C)(C)n1nc(-c2ccc(Cl)cc2)c2c(N)ncnc21`, the result with T-cell [8], in the assay with T-cell [9] and with T-cell [10] was inactive.

Regarding `O[C@H]1[C@H]2[C@H](O)CCCN2C[C@H]1O`, the outcome (in the assay on J-RT3-T3-5 [11]; with Jurkat [7]; in the assay with Jurkat [13]; in [15]; in the assay on T-cell [16]; in the assay with Jurkat [18]) was Active. Besides, the result in the assay on J-RT3-T3-5 [19], in the assay on Jurkat [20], with T-cell [21], in the assay filed under Homo sapiens [22], in the assay with Jurkat [23] and in the assay on Jurkat [24] was Active. Besides, the result (in assay [25]; in the assay filed under Homo sapiens [26]; with T-cell [27]; in the assay with Jurkat [28]; in the assay listed under Homo sapiens [30]; in [31]) was Active. Also, the result with Jurkat [34], in the assay with Jurkat [37], with Jurkat [38] and in the assay on J-RT3-T3-5 [39] was Active. The outcome (in assay [12]; in the assay filed under Homo sapiens [14]; in the assay on J-RT3-T3-5 [17]; in assay [29]; in [32]; in [33]) was inactive. Also, the result (in the assay listed under Homo sapiens [35]; in assay [36]) was inactive.
